Tested on: tomato early blight fungi (Alternaria solani; QoI resistant strain, cytochrome b phenylalanine 129 mutated to leucine)
Assay type: in vivo
Conditions: 200 ppm foliar spray, inoculation after 1 day; tomato cv PATIO

## CCC(=NN=C(C)c1ccc2ccccc2c1)OCc1c(C)cccc1-n1nnn(C)c1=O [cf1]
  lesion area compared to the lesion area in an untreated tomato: ≥ 70%

Source: US11225470B2, “Tetrazolinone compounds and its use as pest control agents” (SUMITOMO CHEMICAL COMPANY, LIMITED, priority 2016, dated 2022)
